From patent US8940768B2, “Antifungal triazole derivatives” (Daewoong Pharmaceutical Co., Ltd., priority 2010, dated 2015)
Converted amounts (≈) assume the structure as drawn.

How the values were obtained:
Assay type in all cases: cell-based
[1] = test system: Candida parapsilosis; assay: in vitro antifungal activity (MIC80), Candida parapsilosis; conditions: Lodderomyces parapsilosis; 80% growth inhibition vs negative control; RPMI 1640; read 24 hrs after application; read-out: Antifungal Activity (MIC80) C. parapsilosis
Protocol: (§1) The compounds of the present invention were evaluated for inhibitory activity against yeast molds including Candida albicans, Candida glabrata, Candida krusei, Candida tropicalis, Candida parapsilosis, and Cryptococcus neoformans, and filamentous fungi including Aspergillus fumigatus, Trichophyton mentagrophytes (obtained from KCTC (Korean Collection for Type Cultures), and Trichophyton rubrum (obtained from KCCM (Korean Culture Center of Microorganisms). All the strains, but Trichophyton mentagrophytes and Trichophyton rubrum, were purchased from the ATCC (American Type Culture Collection).
(§2) Of the strains used in this test, Candida albicans, Candida glabrata, Candida krusei, Candida tropicalis, Candida parapsilosis, Trichophyton mentagrophytes and Trichophyton rubrum were inoculated into sabouraud dextrose agars (Difco, BD-0109), Cryptococcus neoformans into a yeast mold agar (YM agar, Difco, 271210), and Aspergillus fumigatus into a malt extract agar (Difco, 211220), before incubation at 35° C. for two to ten days.
(§3) From the agars on which the yeast molds were grown, single colonies were picked up, and each was sufficiently suspended in 5 mL of already prepared, 0.85% sterile saline. After correction of the absorbance to 0.108 at 530 nm, each of the suspensions was diluted to a ratio of 1:50 in an RPMI (Roswell park memorial institute) 1640 medium and then to a ratio of 1:20 to prepare an inoculum having a cell density of from 1.0×10^3 to 5.0×10^3CFU/mL. The cell density was adjusted into […]˜5.0×10^4 CFU/mL for Aspergillus fumigates and 0.4×10^4˜5.0×10^4 CFU/mL for both Trichophyton mentagrophytes and Trichophyton rubrum.
(§4) The antifungal agent samples were prepared by diluting the active compounds in an RPMI 1640 medium to a serial density of from 0.0156 to 32 μg/mL. In this context, dimethylsulfoxide (DMSO) was used as an excipient at a final concentration of 1% (v/v). The serial dilutions were aliquoted at a volume of 0.1 mL and applied to 0.1 mL of the aliquots of each inoculum, followed by incubation.
(§5) With the naked eyes, an observation was made of all of the yeast molds, but Cryptococcus neoformans 24 hrs after the application, Cryptococcus neoformans and Aspergillus fumigatus 48 hrs after the application, and Trichophyton mentagrophytes and Trichophyton rubrum five days after the application to examine whether the fungi grew or not. In addition, Alamarblue™ as used to determine the concentrations of the compounds of the present invention at which the growth of the microorganisms was 80% inhibited compared to that of the negative control. All experiments were performed in duplicate for each of the test concentration groups.

[2] = test system: Cryptococcus neoformans; assay: in vitro antifungal activity (MIC80), Cryptococcus neoformans; conditions: 80% growth inhibition vs negative control, RPMI 1640, read 48 hrs after application
Protocol: as §1, §2, §3, §4, §5

[3] = test system: Candida glabrata; assay: in vitro antifungal activity (MIC80), Candida glabrata; conditions: Nakaseomyces glabratus, 24 h, read-out: Antifungal Activity (MIC80) C. grabrata
Protocol: as §1, §2, §3, §4, §5

[4] = test system: Trichophyton mentagrophytes; assay: in vitro antifungal activity (MIC80), Trichophyton mentagrophytes; conditions: 120 h, 80% growth inhibition vs negative control, RPMI 1640, read five days after application
Protocol: as §1, §2, §3, §4, §5

[5] = test system: Trichophyton rubrum; assay: in vitro antifungal activity (MIC80), Trichophyton rubrum; conditions: 120 h, 80% growth inhibition vs negative control, RPMI 1640, read five days after application
Protocol: as §1, §2, §3, §4, §5

[6] = test system: Aspergillus fumigatus; assay: in vitro antifungal activity (MIC80), Aspergillus fumigatus; conditions: 80% growth inhibition vs negative control, RPMI 1640, read 48 hrs after application
Protocol: as §1, §2, §3, §4, §5

[7] = test system: Candida krusei; assay: in vitro antifungal activity (MIC80), Candida krusei; conditions: Pichia kudriavzevii; 80% growth inhibition vs negative control; RPMI 1640; read 24 hrs after application; read-out: Antifungal Activity (MIC80) C. krusei
Protocol: as §1, §2, §3, §4, §5

[8] = test system: Candida albicans; assay: in vitro antifungal activity (MIC80), Candida albicans; conditions: 80% growth inhibition vs negative control, RPMI 1640, read 24 hrs after application, Table 1, read-out: Antifungal Activity (MIC80) C. albicans
Protocol: as §1, §2, §3, §4, §5

[9] = test system: Candida tropicalis; assay: in vitro antifungal activity (MIC80), Candida tropicalis; conditions: 80% growth inhibition vs negative control, RPMI 1640, read 24 hrs after application, read-out: Antifungal Activity (MIC80) C. tropicalis
Protocol: as §1, §2, §3, §4, §5

SMILES | MIC80 [1] | MIC80 [2] | MIC80 [3] | MIC80 [4] | MIC80 [5] | MIC80 [6] | MIC80 [7] | MIC80 [8] | MIC80 [9]
C[C@@H](N1CCC(Oc2ncccn2)CC1)[C@](O)(Cn1cncn1)c1ccc(F)cc1F [Example 29, (2R,3R)-2-(2,4-difluorophenyl)-3-(4-(pyrimidin-2-yloxy)piperidin-1-yl)-1-(1H-1,2,4-triazol-1-yl)butan-2-ol] | 0.062 µg/mL (≈ 0.144 µM) | ≤ 0.015 µg/mL | 1 µg/mL (≈ 2.32 µM) | 0.062 µg/mL (≈ 0.144 µM) | ≤ 0.125 µg/mL | 1 µg/mL (≈ 2.32 µM) | 0.5 µg/mL (≈ 1.16 µM) | ≤ 0.015 µg/mL | 0.25 µg/mL (≈ 0.581 µM)
C[C@@H](N1CCC(Nc2ccc(Cl)cc2)CC1)[C@](O)(Cn1cncn1)c1ccc(F)cc1F [Example 34, (2R,3R)-3-(4-((4-chlorophenyl)amino)piperidin-1-yl)-2-(2,4-difluorophenyl)-1-(1H-1,2,4-triazol-1-yl)butan-2-ol] | ≤ 0.015 µg/mL | ≤ 0.015 µg/mL | 0.125 µg/mL (≈ 0.271 µM) | ≤ 0.125 µg/mL | ≤ 0.125 µg/mL | ≤ 0.125 µg/mL | 0.031 µg/mL (≈ 0.0671 µM) | ≤ 0.015 µg/mL | ≤ 0.015 µg/mL
C[C@@H](N1CCC(Nc2ccc(Cl)cn2)CC1)[C@](O)(Cn1cncn1)c1ccc(F)cc1F [Example 59, (2R,3R)-3-(4-((5-chloropyridin-2-yl)-amino)piperidin-1-yl)-2-(2,4-difluorophenyl)-1-(1H-1,2,4-triazol-1-yl)butan-2-ol] | ≤ 0.015 µg/mL | ≤ 0.015 µg/mL | 0.25 µg/mL (≈ 0.54 µM) | ≤ 0.125 µg/mL | ≤ 0.125 µg/mL | 0.25 µg/mL (≈ 0.54 µM) | 0.062 µg/mL (≈ 0.134 µM) | ≤ 0.015 µg/mL | 0.125 µg/mL (≈ 0.27 µM)
C[C@@H](NC1CCN(c2ncc(Br)cn2)CC1)[C@](O)(Cn1cncn1)c1ccc(F)cc1F [Example 153, (2R,3R)-3-((1-(5-bromopyrimidin-2-yl)piperidin-4-yl)amino)-2-(2,4-difluorophenyl)-1-(1H-1,2,4-triazol-1-yl)butan-2-ol] | ≤ 0.015 µg/mL | ≤ 0.015 µg/mL | 0.125 µg/mL (≈ 0.246 µM) | 0.5 µg/mL (≈ 0.984 µM) | ≤ 0.125 µg/mL | 1 µg/mL (≈ 1.97 µM) | 0.125 µg/mL (≈ 0.246 µM) | ≤ 0.015 µg/mL | 0.25 µg/mL (≈ 0.492 µM)
C[C@@H](N1CCC(Oc2ccc(F)cc2)CC1)[C@](O)(Cn1cncn1)c1ccc(F)cc1F [Example 1, (2R,3R)-2-(2,4-difluorophenyl)-3-(4-(4-fluorophenoxy)piperidin-1-yl)-1-(1H-1,2,4-triazol-1-yl)butan-2-ol] | ≤ 0.015 µg/mL | ≤ 0.015 µg/mL | 0.25 µg/mL (≈ 0.56 µM) | ≤ 0.125 µg/mL | ≤ 0.125 µg/mL | ≤ 0.125 µg/mL | 0.062 µg/mL (≈ 0.139 µM) | ≤ 0.015 µg/mL | 0.062 µg/mL (≈ 0.139 µM)
C[C@@H](NC1CCN(c2ccc(F)cc2)CC1)[C@](O)(Cn1cncn1)c1ccc(F)cc1F [Example 125, (2R,3R)-2-(2,4-difluorophenyl)-3-((1-(4-fluorophenyl)piperidin-4-yl)amino)-1-(1H-1,2,4-triazol-1-yl)butan-2-ol] | ≤ 0.015 µg/mL | ≤ 0.015 µg/mL | 0.125 µg/mL (≈ 0.281 µM) | ≤ 0.125 µg/mL | ≤ 0.125 µg/mL | 0.25 µg/mL (≈ 0.561 µM) | 0.062 µg/mL (≈ 0.139 µM) | ≤ 0.015 µg/mL | 0.031 µg/mL (≈ 0.0696 µM)
C[C@@H](NC1CCN(c2ccc(Cl)cc2)CC1)[C@](O)(Cn1cncn1)c1ccc(F)cc1F [Example 128, (2R,3R)-3-((1-(4-chlorophenyl)piperidin-4-yl)amino)-2-(2,4-difluorophenyl)-1-(1H-1,2,4-triazol-1-yl)butan-2-ol] | 0.031 µg/mL (≈ 0.0671 µM) | ≤ 0.015 µg/mL | 0.062 µg/mL (≈ 0.134 µM) | 0.015 µg/mL (≈ 0.0325 µM) | ≤ 0.125 µg/mL | 0.25 µg/mL (≈ 0.541 µM) | ≤ 0.015 µg/mL | ≤ 0.015 µg/mL | 0.031 µg/mL (≈ 0.0671 µM)
C[C@@H](N1CCC(Oc2ccc(Cl)cc2)CC1)[C@](O)(Cn1cncn1)c1ccc(F)cc1F [Example 7, (2R,3R)-3-(4-(4-chlorophenoxy)piperidin-1-yl)-2-(2,4-difluorophenyl)-1-(1H-1,2,4-triazol-1-yl)butan-2-ol] | – | – | – | – | – | ≤ 0.125 µg/mL | – | ≤ 0.015 µg/mL | –
